In US9468624B2, “Small molecule antagonists of bacterial quorum-sensing receptors” (priority 2008, dated 2016):
Like-named read-outs stand apart in the source and are kept apart here.

How the values were obtained:
[1] = test system: C. violaceum killing of C. elegans; assay: C. elegans life span assay following C. violaceum infection; type: in vivo, Caenorhabditis elegans; conditions: wild type C. violaceum, CL 20 μM; untreated two days
Experimental: Life Span Assays. C. elegans lifespan assays were completed with at least 100 wild type N2 worms for each condition. C. elegans eggs were harvested from a large population of gravid adults using a standard bleaching protocol (30 mL 5% bleach, 15 mL N KOH, 55 mL DH2O). Harvested eggs were placed on lawns of fresh E. coli OP50 and allowed to hatch and grow to the young adult (L4) stage before being moved onto lawns of C. violaceum. Worms were scored for survival each day and transferred to new C. violaceum lawns every two days until all worms had expired.
In the presence of the mutant strain, the median C. elegans lifespan is twelve days (FIG. 7A; DMSO control). Exogenous addition of the native autoinducer molecule, C6-HSL restored quorum sensing and complemented the cviI mutant's ability to kill C. elegans (median lifespan=4 days, FIG. 7A).

CviR [2] = target: T1, CviR (Chromobacterium violaceum, UniProt D3W065); assay: cell-based; type: cell-based; design: made in house; host or cells: E. coli BL21(DE3) pLysS, plasmid pET23b
T1 sequence (D3W065 1-265): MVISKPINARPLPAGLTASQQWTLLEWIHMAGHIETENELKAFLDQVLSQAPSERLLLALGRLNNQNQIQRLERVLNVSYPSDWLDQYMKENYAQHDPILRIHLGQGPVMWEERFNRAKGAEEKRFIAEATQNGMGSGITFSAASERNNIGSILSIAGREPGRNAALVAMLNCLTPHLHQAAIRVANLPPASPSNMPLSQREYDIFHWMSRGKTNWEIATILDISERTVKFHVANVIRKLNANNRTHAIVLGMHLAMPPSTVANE
Experimental: The vioA-gfp promoter fusion was constructed by amplifying the vioA promoter and cloning this region upstream of gfp in pEVS141 at the SphI and SalI sites. Cells containing the vioA-gfp construct were electroporated with the pET23 carrying cviR and selected on LB medium supplemented with 75 μg/mL ampicillin and 50 μg/mL kanamycin. The E. coli strain containing cviR and the vio:gfp reporter is named ELS1257.
E. coli strains were grown overnight in LB medium with antibiotics at 37° C. and sub-cultured into fresh medium at a 1:100 dilution. Various AHL and antagonists were added at constant concentrations or titrated as stated. The gfp was measured on an Envision plate reader after 5 hours of growth at 37° C. C. violaceum strains were grown aerobically in 1 mL Nutrient Broth plus 1 mM tryptophan at 30° C. […] Cells were collected via centrifugation at 13000 rpm for 15 minutes. Pellets were resuspended in 1 mL of methanol and incubated at 42° C. for 1 hour. Samples were again collected via centrifugation at 13000 rpm for 5 minutes and analyzed for violacein by measuring optical density at 568 nm on a Beckman Coulter DU-800 spectrophotometer. For the dose-response analyses, all assays were performed in triplicate.
However, binding of the longer acyl-tail length AHL molecules disrupts the transcriptional activation ability of CviR.
To determine if 4606-4237 inhibits violacein production specifically by interfering with CviR, 4606-4237 was tested for antagonism of CviR in the recombinant E. coli vioA-gfp assay. For these experiments, C6-HSL was held constant at 500 nM, while 4606-4237 was titrated from 1.3 nM to 100 μM (FIG. 3D). […] Importantly, no C. violaceum components other than CviR are present in the recombinant E. coli assay strain. Thus, any inhibition occurring would be due to a specific interaction between the antagonist molecule 4606-4237 and CviR rather than an interaction of 4606-4237 with some unknown component required for violacein production in C. violaceum.

CviR [3] = target: T1, CviR; type: binding; design: made in house; host or cells: E. coli BL21(DE3) pLysS, plasmid pET23b; conditions: for DNA binding of ligand-loaded CviR to vioA promoter: CviR 100-500 nM
Experimental: CviR Overexpression and Purification. CviR was overexpressed in BL21(DE3) pLysS by growing an overnight culture in LB supplemented with 100 μg/mL ampicillin and 10 μg/mL chloramphenicol. The culture was diluted 1:50 into fresh LB supplemented with 100 μg/mL ampicillin and 10 μg/mL chloramphenicol and grown shaking at 37° C. to an OD600 of 0.4. Various AHL or antagonist molecules were added to at 50 μM and incubated an additional 30 minutes at 30° C., after which expression was induced by the addition of 100 μM IPTG (isopropyl-β-D-thiogalactopyranoside) for 4 hours at 30° C. Cells were harvested by centrifugation and lysed in 20 mM imidazole pH 8.0, 100 mM NaCl, 0.5 mM EDTA and 5% glycerol via a Micro-fluidizer processor (MicroFluidics). Protein was purified via ion-exchange using a Hitrap Heparin HP column (GE Healthcare). Protein was eluted with a 100 mM to 1 M NaCl gradient. Fractions containing CviR were pooled and diluted in lysis buffer devoid of NaCl, and then further purified by cation exchange chromatography using a Hitrap SP HP column (GE Healthcare). CviR was eluted with a 100 mM to 1 M NaCl gradient.
DNA probes for gel mobility shift analyses were generated by standard polymerase chain reaction using primers with a 5′ 6-FAM (fluorescein) tag (Integrated DNA Technologies). The target probe contained about 100 nucleotides of the vioA promoter. The control probe contained 300 bases of vioB intergenic DNA. 37 ng of each probe was incubated for 20 minutes at room temperature with the indicated amounts of CviR (0, 0.1, 0.2, 0.3, 0.4 and 0.5 μM) and 1 μg/μL poly-dIdC in 1× Gel shift buffer (40 mM Tris HCl pH 8.0, 100 mM KCL, 2 mM EDTA, 2 mM DTT, 10% glycerol, 200 μg/mL BSA). Gel mobility shifts were performed on 6% TGE-polyacrylamide gels and visualized using a Storm 860 Imaging System (Molecular Dynamics).
To further investigate the mechanism underlying antagonism of the CviR receptor, an examination was undertaken of whether the soluble CviR antagonist complexes were incapable of binding DNA, and thus unable to activate transcription. […] The CviR protein was also purified in complex with each of the synthetic antagonist molecules, 4606-4237, CTL, and CL. Performance of DNA gel mobility shift analyses enabled assessment of the binding of each of these purified, loaded protein complexes to the vioA promoter.
The reciprocal experiment tested whether C6-HSL could replace CL bound to CviR.

Question: Which results are given for `O=C(CCCOc1ccc(Cl)cc1)NC1CCOC1=O` (stereo not drawn) [CL, chlorolactone]?
Answer: C. elegans lifespan [1]: seven; IC50 (CviR [2]; constant 500 nM C6-HSL, read-out: IC50 for inhibition of vioA-gfp expression): 377 nM; ligand exchange on loaded CviR, effect on DNA binding (CviR [3]; 500 nM loaded CviR, competing ligand 0-10 μM): DNA binding decreased in a dose dependent manner; DNA binding of ligand-loaded CviR to vioA promoter (CviR [3]): no ability to bind DNA

Question: For `O=C(CCCOc1ccc(Cl)cc1)NC1CCSC1=O` (stereo not drawn) [CTL, Chloro-thiolactone], which IC50 (CviR [2]) is on record?
Answer: 1100 nM

Question: What about the “DNA binding of ligand-loaded CviR to vioA promoter” value (CviR [3]) of the same molecule?
Answer: no ability to bind DNA
